Measurements taken from patent US20250230193A1, “CYCLIC COMPOUND HAVING SELECTIVE KRAS INHIBITORY EFFECT ON HRAS AND NRAS” (CHUGAI SEIYAKU KABUSHIKI KAISHA, priority 2022, published 2025).

Legend:
[1] = target: GDP-bound NRAS wild-type protein (Homo sapiens, UniProt P01111); experiment: Binding to NRAS by surface plasmon resonance (SPR), Single Cycle Kinetics; details: KD ratio NRAS/KRAS, SPR
[2] = target: GDP-bound HRAS wild-type protein (Homo sapiens, UniProt P01112); experiment: Binding to HRAS by surface plasmon resonance (SPR), Single Cycle Kinetics; details: KD ratio HRAS/KRAS, SPR
Chain of GDP-bound HRAS wild-type protein (P01112 whole entry): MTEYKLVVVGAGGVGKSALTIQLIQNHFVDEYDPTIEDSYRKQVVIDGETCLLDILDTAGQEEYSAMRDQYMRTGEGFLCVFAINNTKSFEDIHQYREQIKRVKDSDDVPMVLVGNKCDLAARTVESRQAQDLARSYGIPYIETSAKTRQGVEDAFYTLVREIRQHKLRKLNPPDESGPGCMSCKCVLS

Chain of GDP-bound NRAS wild-type protein (P01111 whole entry): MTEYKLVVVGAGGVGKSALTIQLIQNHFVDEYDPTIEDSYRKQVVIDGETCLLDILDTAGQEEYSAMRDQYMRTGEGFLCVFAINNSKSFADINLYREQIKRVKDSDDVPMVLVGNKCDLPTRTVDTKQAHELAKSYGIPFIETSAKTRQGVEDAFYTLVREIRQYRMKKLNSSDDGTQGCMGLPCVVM

Row | SMILES | NRAS/KRAS (ratio of KD value with respect to GDP-bound NRAS wild-type protein to KD value with respect to KRAS) [1] | HRAS/KRAS (ratio of KD value with respect to GDP-bound HRAS wild-type protein to KD value with respect to KRAS) [2]
1 | CC[C@H](C)[C@@H]1NC(=O)[C@H](CC(C)C)N(C)C(=O)C[C@@H](C(=O)N2CCOCC2)N(C)C(=O)[C@H](C2CCCC2)N(C)C(=O)C2(CCCC2)NC(=O)[C@@H]2CCCN2C(=O)[C@H](CCc2cc(F)c(C(F)(F)F)c(F)c2)NC(=O)CN(C)C(=O)[C@H](Cc2ccc(C(F)(F)F)cc2)N2CCCC[C@@H](C2=O)N(C)C(=O)[C@@H]2CCCCN2C1=O [PP0548] | C (A compound having a KD ratio of 0.1 or more and less than 3 is denoted as C) | B (a compound having 3 or more and less than 10 is denoted as B)
2 | CC[C@H](C)[C@@H]1NC(=O)[C@H](C)N(C)C(=O)C[C@@H](C(=O)N2CCOCC2)N(C)C(=O)[C@H](C2CCCC2)N(C)C(=O)C2(CCCC2)NC(=O)[C@@H]2CCCN2C(=O)[C@H](CCc2cc(F)c(C(F)(F)F)c(F)c2)NC(=O)CN(C)C(=O)[C@H](Cc2ccc(C(F)(F)F)cc2)N2CCCC[C@@H](C2=O)N(C)C(=O)CN(C)C1=O [PP0549] | C (A compound having a KD ratio of 0.1 or more and less than 3 is denoted as C) | B (a compound having 3 or more and less than 10 is denoted as B)
3 | CC[C@H](C)[C@@H]1NC(=O)[C@H](CC)N(C)C(=O)C[C@@H](C(=O)N2CCOCC2)N(C)C(=O)[C@H](C2CCCC2)N(C)C(=O)C2(CCCC2)NC(=O)[C@@H]2CCCN2C(=O)[C@H](CCc2cc(F)c(C(F)(F)F)c(F)c2)NC(=O)CN(C)C(=O)[C@H](Cc2ccc(C(F)(F)F)cc2)N2CCCC[C@@H](C2=O)N(C)C(=O)CN(C)C1=O [PP0550] | B (a compound having 3 or more and less than 10 is denoted as B) | B (a compound having 3 or more and less than 10 is denoted as B)
4 | CC[C@H](C)[C@@H]1NC(=O)[C@H](CC(C)C)N(C)C(=O)C[C@@H](C(=O)N2CCOCC2)N(C)C(=O)[C@H](C2CCCC2)N(C)C(=O)C2(CCCC2)NC(=O)[C@@H]2CCCN2C(=O)[C@H](CCc2cc(F)c(C(F)(F)F)c(F)c2)NC(=O)CN(C)C(=O)[C@H](Cc2ccc(C(F)(F)F)cc2)N2CCCC[C@@H](C2=O)N(C)C(=O)[C@H](CC)N(C)C1=O [PP0551] | C (A compound having a KD ratio of 0.1 or more and less than 3 is denoted as C) | B (a compound having 3 or more and less than 10 is denoted as B)
5 | CC[C@H](C)[C@@H]1NC(=O)[C@H](CC(C)C)N(C)C(=O)C[C@@H](C(=O)N2CCOCC2)N(C)C(=O)[C@H](C2CCCC2)N(C)C(=O)C2(CCCC2)NC(=O)[C@@H]2CCCN2C(=O)[C@H](CCc2cc(F)c(C(F)(F)F)c(F)c2)NC(=O)CN(C)C(=O)[C@H](Cc2ccc(C(F)(F)F)cc2)N2CCCC[C@@H](C2=O)N(C)C(=O)CN(C)C1=O [PP0552] | B (a compound having 3 or more and less than 10 is denoted as B) | B (a compound having 3 or more and less than 10 is denoted as B)
6 | CCO[C@@H]1C[C@H]2C(=O)NC3(CCCC3)C(=O)N(C)[C@@H](C3CCCC3)C(=O)N(C)[C@H](C(=O)N3CCOCC3)CC(=O)N(C)[C@@H](CC(C)C)C(=O)N[C@@H]([C@@H](C)CC)C(=O)N(C)CC(=O)N(C)[C@H]3CCCCN(C3=O)[C@@H](Cc3ccc(C(F)(F)F)cc3)C(=O)N(C)CC(=O)N[C@@H](CCc3cc(F)c(C(F)(F)F)c(F)c3)C(=O)N2C1 [PP0554] | B (a compound having 3 or more and less than 10 is denoted as B) | B (a compound having 3 or more and less than 10 is denoted as B)
